From patent publication US7557133B2, “Caspase inhibitors containing isoxazoline ring” (LG Life Sciences Ltd., priority 2003, dated 2009)
Marks after values point to notes of the source that are not given here.

Experiments:
[1] = system: Jurkat cell (ATCC TIB-152); experiment: Jurkat cell apoptosis by Fas antibody, WST-1 method; assay type: cell-based; settings: for IC50: apoptosis using Fas antibody, WST-1
Procedure, shortened: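 Jurkat cells (ATCC TIB-152) induced to apoptosis with Fas antibody in the presence of inhibitor. Viable cells quantified by WST-1 colour change, absorbance at 440 nm.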

[2] = system: LPS-induced acute hepatitis; experiment: Therapeutic effect for LPS-induced acute hepatitis in mouse (plasma ALT); assay type: in vivo
Experimental: Female Balb/c mice (6 weeks, Charles River Laboratory, Osaka, Japan) were kept under the conditions of 22 °C, 55% of relative humidity, and light-darkness cycle of 12 hours. Food and water were supplied ad libitum. In pyrogen-free saline were dissolved LPS (lipopolysaccaride) and D-galactosamine in concentrations of 0.4 mg/ml and 280 mg/ml, respectively, and their 1:1 mixture was injected to mice in the amount of 5 ml/kg. Immediately after the injection of LPS and D-galactosamine, vehicle (a mixture of PEG400:ethanol:Tween80=15:7.5:2.5 was diluted by five times with saline) wherein the test compound is dissolved or the vehicle alone was intraperitoneally injected into the mice. After 8 hours from the drug injection, blood samples were obtained from their hearts.
The plasma ALT activity was determined for the blood samples obtained in Step 1 using ALT assay kit (Asan Pharm. Co., Seoul, Korea) according to the manufacturer's instruction.

hepatic fibrosis = experiment: Inhibitory effect against hepatic fibrosis in SD rats (biliary duct ligation, Sirius red staining); assay type: in vivo, rat; settings: BDL rats, 3 or 10 mg/kg orally twice a day for 1 week
Experimental: Male Spargue-Dawley rats (6 weeks, Korea Biolink) were kept under the conditions of 22 °C, 55% of relative humidity, and light-darkness cycle of 12 hours. Food and water were supplied ad libitum. For the ligation of biliary duct, the rats were anesthetized by inhalation of 1% halothane, abdomen of the rats were cut open, the distal and proximal biliary ducts were ligated, the part between the ligation sites were cut, 2 ml of saline was injected, and sutured. Test compound (Iii) was orally administered in a dosage of 3 mg/kg or 10 mg/kg twice a day. That is, the compound was dissolved in a cosolvent (PEG400:ethanol:Tween80=15:7.5:2.5), diluted with phosphate buffer (pH 7.4) by five times, and administered. To the control group was administered the solution without the test compound. The administration was made for 1 week after 1 week from the ligation of biliary duct. After the administration, the rats were sacrificed. The livers were fixed by 10% neutral formalin and a paraffin section of 5 μm thickness was prepared and stained by 0.1% Sirius red (Direct red 80, Sigma). The tissue section was investigated by an optical microscope to observe the collagen fibers stained in red, and the results are represented in FIG. 1.

rheumatic arthritis = experiment: Therapeutic effect for rheumatic arthritis in rats (type II collagen); assay type: in vivo, rat
Experimental: Female Lewis rats (7 weeks, Charles River, Japan) were kept under the conditions of 22 °C, 55% of relative humidity, and light-darkness cycle of 12 hours. Food and water were supplied ad libitum. Type II collagen (bovine) was dissolved in 0.05M acetic acid in a concentration of 2 mg/ml at 4[…], and the same amount of Complete Freund's adjuvant was added to emulsify the solution at 4[…]. 0.1 ml of thus emulsified solution was subcutaneously injected into the rattail of the Lewis rats. After 7 days, the emulsified solution was injected again in the same manner. From the date on which the second emulsified solution was injected, vehicle (a mixture of PEG400:ethanol:Tween80=15:7.5:2.5 was diluted by ten times with phosphate buffer) wherein the test compound is dissolved or the vehicle alone was orally administered into the rats every day. On Day 14 from the first injection of the collagen-containing emulsified solution, the right rear foot volume was measured again by plethysmometer (see Table 4). The edema inhibition (%) was determined by the following Equation 3. […]
Further, p-value was calculated by Student t-test from the increased foot volume on Day 14 to confirm the significance.

IC50 ([1]; Homo sapiens, Jurkat): 100 nM
IC50 [1]: ≤ 100 nM
Structure (SMILES): CC(C)[C@@]1(C(=O)NC(CC(=O)O)C(=O)CF)CC(c2nccc3ccccc23)=NO1 (stereo partly drawn) [Iii, 5-Fluoro-3-({[(5R)-5-isopropyl-3-(1-isoquinolinyl)-4,5-dihydro-5-isoxazolyl]carbonyl}amino)-4-oxopentanoic acid]
increased inhibitory activity against Jurkat cell compared with LB84068MP [1]: ≥ 10 times
increased activity against LPS-induced acute hepatitis model (mouse) compared with LB84068MP ([2]; in vivo): about 100 times
ED50 ([2]; ip, LPS and D-galactosamine, intraperitoneally injected, plasma ALT after 8 hours, read-out: ED50 (LPS + Gal)): 0.01 mg/kg
fibrosis by Sirius Red staining (hepatic fibrosis): almost no fibrosis
Foot volume (ml) Day 14 Average (rheumatic arthritis; 10 mg/kg oral every day, Day 14): 1.394* ml
Foot volume (ml) Day 0 Average (rheumatic arthritis; 10 mg/kg oral group, Day 0): 1.134 mL
